Patent US9409868B2, “Inhibitors of rho associated protein kinases (ROCK) and methods of use” (H. LEE MOFFITT CANCER CENTER AND RESEARCH INSTITUTE, INC., priority 2012, dated 2016)
Like-named read-outs stand apart in the source and are kept apart here.

Tests used:
[1] = tested on: phosphorylation of MLC2 (ROCK substrate) in MDA-MB-231 cells; assay: Western blot of MLC2 phosphorylation in MDA-MB-231 breast cancer cells; format: cell-based, human; conditions: 1 hr, MDA-MB-231, FIG. 4
Procedure: Western Blot Analysis. MDA-MB-468, MDA-MB-231, MCF-7, DU-145, H460, A549, HT29 and HCT116 cells (ATCC, Rockville, Md., USA) were plated in 6-well tissue culture plate. The cells were then treated next day with different concentrations of the RKIs for 1 h. After incubation, the cells were harvested, lysed, quantified and blotted for P-MLC2 (Cat no. 3671S), total-MLC2 (Cat no. 3672S), P-MEK (S298) (Cat no. 9128S), total-MEK (Cat no. 9122S), P-S6 (Cat no. 2155S), total-S6 (2217S), P-Erk (Cat no. 9101L), total Erk (Cat no. 9102L), P-Akt (Cat no. 9271L), total Akt (Cat no. 9272L) (Cell Signaling, Danvers, Mass., USA) and tubulin (Cat no. 5168) (Sigma, St Louis, Mo., USA) antibodies as described by us previously

[2] = tested on: NIH 3T3 cells; assay: Cell morphology assay (phalloidin staining) in starved NIH 3T3 cells; format: cell-based; parameters: dose or concentration left out as unconfirmed; conditions: starved NIH 3T3, FIG. 6
Procedure: Cell Morphology Assay. NIH 3T3 cells were plated at 8000 cells per well in 8-chamber slide in serum-free media (serum starvation) for 24 h. After serum starvation, the cells were treated with vehicle or the RKIs for 1 h. After treatment, the cells were stimulated with […] LPA, 200 ng/ml bradykinin or 30 ng/ml PDGF for 30 min. After stimulation, the cells were fixed with 4% paraformaldehyde, permeabilized using 0.1% Triton X-100 and stained with Texas-Red phalloidin (Cat no. T7471) (Invitrogen, Eugene, Oreg., USA) and DAPI (40,6 diamidino-2-phenylindole: counterstains DNA) (Cat no. H-1200; Vector Laboratories, Burlingame, Calif., USA). The cells were imaged using Zeiss Upright Fluorescence Microscope.

[3] = tested on: MDA-MB-231 cells; assay: Soft agar anchorage-independent growth assay; format: cell-based, human
Procedure: Soft Agar Assay. MDA-MB-231 cells were seeded in a 12-well tissue culture plate at 1200 cells per well in regular growth media and 0.3% agar. The cells were treated with different doses of RKI-11 and RKI-18, allowed to grow for 4 weeks, after which the colonies were stained overnight with 1 mg/ml MTT and counted.

[4] = tested on: MDA-MB-231 cells; assay: Matrigel Transwell invasion assay; format: cell-based, human; conditions: for inhibition of invasion (figure legend): FIG. 8
Procedure: Invasion Assay. Invasion assay was performed in Corning Transwell inserts coated with Matrigel. MDA-MB-231 cells were seeded at 3.5_105 and allowed to grow overnight in a 6-well plate. The cells were treated with either vehicle or different doses of RKIs for 24 h. After treatment, the cells were trypsinized, resuspended and plated in the inserts. The bottom chamber contained 20% FBS as the ‘chemoattractant’. The cells were kept in the incubator for 48 h. After incubation, the cells were stained and membrane was quantified.

[5] = tested on: MDA-MB-231 cells; assay: Apoptosis by caspase 3 activation and PARP cleavage; format: cell-based, human; conditions: up to 30 mM (so in the source)
[6] = tested on: MDA-MB-231 cells; assay: MTT assay, anchorage-dependent proliferation; format: cell-based, human
Procedure: MTT Assay. MTT assay was performed to determine the effects of RKIs on anchoragedependent cell proliferation. Briefly, cells were plated in a 96-well tissue culture plate (1200 cells per well) and incubated for 24 h. After incubation, the cells were treated with vehicle or increasing concentrations of RKI-11 or RKI-18 ([…]). After 72 h incubation, freshly prepared MTT (2 mg/ml) was added to each well and incubated for 3 h. After incubation, the plates were read at 540 nm.

[7] = tested on: MDA-MB-231 cells; assay: Wound-healing scratch migration assay; format: cell-based, human; conditions: for inhibition of migration (wound-healing scratch assay): FIG. 8a
Procedure: Wound-Healing-Migration Assay. MDA-MB-231 cells were seeded at 4_105 cells per well in a 6-well plate and allowed to grow overnight at 37 1C and 5% CO2. The cells were starved for 24 h and scratched. The cells were then treated with different concentrations of RKIs in regular growth media for 24 h. Images of the scratch were acquired at 0 h and 24 h.

[8] = target: T1, ROCK2 (Homo sapiens (Human), UniProt O75116); assay: Z-Lyte FRET kinase assay, ROCK2; format: biochemical
Excerpt: (§1) Kinase Assay. A robust FRET-based, enzyme-coupled assay format, Z-Lyte® Kinase Assay Ser/[…] Peptide Kit (Invitrogen, cat. PV3793), was employed in this study to monitor inhibition of ROCK1 (Invitrogen, cat. PV3691) and ROCK2 (Invitrogen, cat. PV3759) enzyme activities. […] The substrate contains both coumarin and fluorescein and only uncleaved […] substrate will undergo FRET. […] A known inhibitor, Y-27632 (Tocris Bioscience, cat. 1254), is used as a control compound.

[9] = target: ROCK1 (Homo sapiens (Human), UniProt Q13464); assay: Z-Lyte FRET kinase assay, ROCK1; format: biochemical
Chain of ROCK1 (Q13464 whole entry): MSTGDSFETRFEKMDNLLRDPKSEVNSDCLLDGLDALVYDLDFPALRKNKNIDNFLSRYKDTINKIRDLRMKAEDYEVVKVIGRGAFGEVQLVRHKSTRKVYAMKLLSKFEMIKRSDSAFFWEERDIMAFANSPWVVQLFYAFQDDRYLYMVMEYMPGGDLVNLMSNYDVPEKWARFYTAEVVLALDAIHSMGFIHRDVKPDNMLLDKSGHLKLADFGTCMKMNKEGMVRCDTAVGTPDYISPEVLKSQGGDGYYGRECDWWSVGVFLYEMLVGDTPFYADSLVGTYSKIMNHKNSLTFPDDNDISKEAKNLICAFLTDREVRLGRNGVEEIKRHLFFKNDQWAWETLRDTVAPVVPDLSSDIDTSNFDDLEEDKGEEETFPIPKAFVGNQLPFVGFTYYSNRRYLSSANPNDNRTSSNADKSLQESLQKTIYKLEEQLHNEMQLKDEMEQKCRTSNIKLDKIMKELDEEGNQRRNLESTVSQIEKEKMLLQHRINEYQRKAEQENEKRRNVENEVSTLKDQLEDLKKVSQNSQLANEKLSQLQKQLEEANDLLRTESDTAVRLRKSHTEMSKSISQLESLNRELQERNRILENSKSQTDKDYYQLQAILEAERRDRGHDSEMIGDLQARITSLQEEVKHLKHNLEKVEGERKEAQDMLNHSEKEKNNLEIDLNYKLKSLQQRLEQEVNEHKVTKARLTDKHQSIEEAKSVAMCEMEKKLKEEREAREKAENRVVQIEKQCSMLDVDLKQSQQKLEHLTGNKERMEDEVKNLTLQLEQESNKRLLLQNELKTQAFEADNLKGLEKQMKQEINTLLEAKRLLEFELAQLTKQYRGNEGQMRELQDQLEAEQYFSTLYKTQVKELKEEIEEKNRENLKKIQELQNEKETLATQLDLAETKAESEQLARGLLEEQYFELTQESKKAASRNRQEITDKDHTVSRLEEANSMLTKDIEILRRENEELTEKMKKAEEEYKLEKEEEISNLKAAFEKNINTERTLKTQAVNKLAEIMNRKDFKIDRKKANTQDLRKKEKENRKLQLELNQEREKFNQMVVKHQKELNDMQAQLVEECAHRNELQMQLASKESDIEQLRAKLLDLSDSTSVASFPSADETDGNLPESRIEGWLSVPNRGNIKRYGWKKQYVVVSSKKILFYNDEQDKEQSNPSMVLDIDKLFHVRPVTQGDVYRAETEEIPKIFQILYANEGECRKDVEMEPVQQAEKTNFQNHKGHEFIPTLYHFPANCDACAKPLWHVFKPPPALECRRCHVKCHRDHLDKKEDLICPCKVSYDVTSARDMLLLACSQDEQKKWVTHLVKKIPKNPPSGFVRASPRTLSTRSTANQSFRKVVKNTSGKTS
Excerpt: as §1

[10] = target: Aurora-A (Homo sapiens (Human), UniProt O14965); assay: Aurora-A inhibition (selectivity); format: biochemical; conditions: FIG. 2
Chain of Aurora-A (O14965 whole entry): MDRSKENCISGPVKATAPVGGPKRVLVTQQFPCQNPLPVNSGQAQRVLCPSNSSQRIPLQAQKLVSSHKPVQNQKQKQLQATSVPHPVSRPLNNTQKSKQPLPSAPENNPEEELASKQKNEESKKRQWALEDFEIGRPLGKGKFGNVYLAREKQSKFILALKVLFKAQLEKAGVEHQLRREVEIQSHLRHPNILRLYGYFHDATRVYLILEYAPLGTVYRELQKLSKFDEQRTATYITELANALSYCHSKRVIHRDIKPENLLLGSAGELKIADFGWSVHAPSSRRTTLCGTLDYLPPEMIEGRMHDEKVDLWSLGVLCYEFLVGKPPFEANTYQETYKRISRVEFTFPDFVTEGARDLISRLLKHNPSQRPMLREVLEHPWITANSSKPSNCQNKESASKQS

[11] = target: T1, ROCK2; conditions: Feng et al. 2008; read-out: ROCK2 enzymatic activity IC50 (reported); cited from earlier work

SMILES	IC50 ([8]; triplicate experiments) [nM]	IC50 ([9]; triplicate experiments) [nM]	other results
O=C(NCCc1ccccc1)Nc1ccc2[nH]ncc2c1 [Compound 18, 1-(1H-Indazol-5-yl)-3-phenethylurea]	–	–	P-MLC2 levels ([1]; 10 μM): greatly decreased; LPA-induced stress fiber formation ([2]; listed as RKI-18): inhibits; PDGF-induced lamelipodia formation ([2]; listed as RKI-18): inhibits; bradykinin-induced filopodia formation ([2]; listed as RKI-18): inhibits; inhibition of anchorage-independent growth (figure legend) ([3]; MDA-MB-231, FIG. 7): inhibits; inhibition of invasion (figure legend) [4]: inhibits; induction of apoptosis (caspase 3 activation and PARP cleavage) [5]: did not induce apoptosis; IC50 ([6]; Homo sapiens, MDA-MB-231, 72 h, unit given as mM): 0.032 mM; potency at anchorage-dependent proliferation compared to anchorage-independent growth ([6]; MDA-MB-231): four-fold less potent; inhibition of migration (figure legend) ([7]; FIG. 8): inhibits; inhibition of migration (wound-healing scratch assay) ([7]; concentration-dependent manner starting at 3 mM (so in the source)): inhibited the migration
O=C(Nc1ccc2[nH]ncc2c1)N[C@H](CO)Cc1ccccc1 [Compound 14, (S)-1-(1-Hydroxy-3-phenylpropan-2-yl)-3-(1H-indazol-5-yl)urea]	2300 ± 600	4600 ± 2100	–
CN(CCc1ccccc1)C(=O)Nc1ccc2[nH]ncc2c1 [Compound 13, 3-(1H-Indazol-5-yl)-1-methyl-1-phenethylurea]	7500 ± 1700	21500 ± 7300	–
O=C(Nc1ccncc1)c1cnccc1Cl [Compound 4, 4-Chloro-N-(pyridin-4-yl)nicotinamide]	221000 ± 25700	72500 ± 6800	–
O=C(Nc1ccc(-c2ccncc2)cc1)N[C@H](CO)c1ccccc1 [Compound 24, (S)-1-(2-Hydroxy-1-phenylethyl)-3-(4-(pyridin-4-yl)phenyl)urea]	100	1700	P-MLC2 levels ([1]; 1 μM): greatly decreased; P-MLC2 levels ([1]; 10 μM): greatly decreased; LE (Ligand Efficiency), ROCK2 [8]: 0.38; fold more kinase inhibitory activity for ROCK 2 ([8]; 24 (S) versus 23 (R)): 75 fold; LE (Ligand Efficiency), ROCK1 [9]: 0.31; fold difference for ROCK1 ([9]; 24 (S) versus 23 (R)): five fold
O=C(NCCc1ccccc1)Nc1ccc(-c2ccncc2)cc1 [Compound 25, 1-Phenethyl-3-(4-(pyridin-4-yl)phenyl)urea]	19800 ± 3290	2610 ± 410	–
O=C(NCCc1ccc(Cl)cc1)Nc1ccc2[nH]ncc2c1 [Compound 17, 1-(4-Chlorophenethyl)-3-(1H-indazol-5-yl)urea]	1100 ± 300	2200 ± 1000	–
O=C(Nc1ccc(-c2ccncc2)cc1)N[C@H](CO)Cc1ccccc1 [Compound 27, (S)-1-(1-Hydroxy-3-phenylpropan-2-yl)-3-(4-(pyridin-4-yl)phenyl)urea]	32900 ± 4670	31000 ± 10500	–
CC(=O)Nc1ccc2[nH]ncc2c1 [N-(1H-indazole-5-yl)acetamide]	40000	65000	–
O=C(Nc1ccc(-c2ccncc2)cc1)N[C@@H](CO)Cc1ccccc1 [Compound 26, (R)-1-(1-Hydroxy-3-phenylpropan-2-yl)-3-(4-(pyridin-4-yl)phenyl)urea]	5360	1410	–
O=C(Nc1nc(-c2ccncc2)cs1)C1COc2ccccc2O1 (stereo not shown) [CID5056270, reference compound]	–	–	IC50 [10]: > 100 µM; IC50 [11]: < 0.003 µM; IC50 ([8]; values in nM): 0.56 nM; IC50 ([9]; values in nM): 13 nM
O=C(NCC(O)c1ccccc1)Nc1ccc2[nH]ncc2c1 (stereo not shown) [Compound 15, 1-(2-Hydroxy-2-phenylethyl)-3-(1H-indazol-5-yl)urea]	–	2900 ± 800	IC50 [8]: 1500 ± 400 nM
CN(C)C(=O)Nc1ccc2[nH]ncc2c1 [Compound 10, 3-(1H-Indazol-5-yl)-1,1-dimethylurea]	36100 ± 5900	59000	–
Nc1ccc2[nH]ncc2c1 [Compound 8, 5-Aminoindazole]	–	–	IC50 [8]: 120000 nM; IC50 [9]: 181000 nM
O=C(Nc1ccncc1)c1cncc(Br)c1 [Compound 5, 5-Bromo-N-(pyridin-4-yl)nicotinamide]	357000 ± 35300	270000 ± 51000	–
COc1ccc(CCNC(=O)Nc2ccc3[nH]ncc3c2)cc1 [Compound 16, 1-(1H-Indazol-5-yl)-3-(4-methoxyphenethyl)urea]	800 ± 300	2600 ± 600	–
O=C(Nc1ccc(-c2ccncc2)cc1)N[C@@H](CO)c1ccccc1 [Compound 23, (R)-1-(2-Hydroxy-1-phenylethyl)-3-(4-(pyridin-4-yl)phenyl)urea]	8000	9000	P-MLC2 levels ([1]; 1 μM): no effect; P-MLC2 levels ([1]; 10 μM): less potent than 24; LE (Ligand Efficiency), ROCK2 [8]: 0.28; IC50 ([8]; values in nM): 7520 nM; LE (Ligand Efficiency), ROCK1 [9]: 0.28
O=C(Nc1ccccc1)Nc1ccc2[nH]ncc2c1 [Compound 11, 1-(1H-Indazol-5-yl)-3-phenylurea]	62000	157000	LPA-induced stress fiber formation [2]: not; bradykinin-induced filopodia formation [2]: not; effect on anchorage independent growth ([3]; at 60 mM (so in the source)): little effect; inhibition of invasion (figure legend) [4]: not; effect on cell invasion ([4]; at 60 mM (so in the source), FIG. 8b): no effect; inhibition of migration (wound-healing scratch assay) ([7]; at 60 mM (so in the source)): did not inhibit
O=C(NCc1ccccc1)Nc1ccc(-c2ccncc2)cc1 [Compound 22, 1-Benzyl-3-(4-(pyridin-4-yl)phenyl)urea]	260	1150	–
O=C(NCCCc1ccccc1)Nc1ccc2[nH]ncc2c1 [Compound 19, 1-(1H-indazol-5-yl)-3-(3-phenylpropyl)urea]	1070	2460 ± 550	–
O=C(Nc1ccncc1)c1cccnc1 [Compound 3, N-(Pyridin-4-yl)nicotinamide]	55900 ± 11300	75500	–
